Laboratory results taken from ChEMBL document CHEMBL5137073, “Optimization and Mechanistic Investigations of Novel Allosteric Activators of PKG1α” (J Med Chem, 2022).
pEC50: −log10 of the molar value. In brackets after ≈: the same amount, converted by molar mass.

How the values were obtained:
[1] = biological target: T1, cGMP-dependent protein kinase 1 (Homo sapiens, UniProt Q13976); test: Activation of basal state recombinant PKG1alpha (unknown origin) using Glass-tide peptide substrate incubated for 30 mins followed by ATP addition and measured after 2 hr by ADP-GLO Max Assay
T1 sequence (Q13976 whole entry): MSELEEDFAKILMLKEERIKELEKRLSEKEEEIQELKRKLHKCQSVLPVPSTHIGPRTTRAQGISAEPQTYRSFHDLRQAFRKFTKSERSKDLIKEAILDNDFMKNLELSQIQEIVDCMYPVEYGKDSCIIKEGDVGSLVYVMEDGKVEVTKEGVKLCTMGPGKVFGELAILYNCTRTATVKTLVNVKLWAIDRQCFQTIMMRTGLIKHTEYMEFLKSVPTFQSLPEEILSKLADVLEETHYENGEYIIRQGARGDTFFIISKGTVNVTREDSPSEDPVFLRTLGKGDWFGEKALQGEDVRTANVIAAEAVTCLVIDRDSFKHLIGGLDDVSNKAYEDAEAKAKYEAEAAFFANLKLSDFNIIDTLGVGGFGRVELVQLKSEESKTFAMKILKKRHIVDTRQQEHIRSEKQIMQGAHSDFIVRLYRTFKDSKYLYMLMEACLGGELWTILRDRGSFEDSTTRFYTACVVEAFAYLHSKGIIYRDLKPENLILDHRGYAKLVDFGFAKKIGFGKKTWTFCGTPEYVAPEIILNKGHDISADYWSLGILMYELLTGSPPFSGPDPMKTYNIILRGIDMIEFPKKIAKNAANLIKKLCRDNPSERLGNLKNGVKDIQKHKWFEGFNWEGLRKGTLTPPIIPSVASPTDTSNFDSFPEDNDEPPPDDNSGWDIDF

[2] = biological target: T1, cGMP-dependent protein kinase 1; test: Activation of cGMP induced partially activated state recombinant PKG1alpha (unknown origin) using Glass-tide peptide substrate incubated for 30 mins followed by ATP addition and measured after 2 hr in presence of cGMP by ADP-GLO Max Assay
[3] = Volume of distribution in Wistar Han male rat plasma at 1 mg/kg, iv or 5 mg/kg, po and measured upto 8 hrs post dose by LC-MS/MS analysis; assay type: ADME, organism-based
[4] = Solubility of compound at pH 7; assay type: physicochemical; conditions: buffer
[5] = Apparent permeability in dog MDCK-II cells; assay type: ADME, cell-based, Canis lupus familiaris
[6] = Solubility of compound at pH 2; assay type: physicochemical; conditions: buffer
[7] = Solubility of compound in FaSSIF; assay type: physicochemical
[8] = Clearance in Wistar Han male rat plasma at 1 mg/kg, iv or 5 mg/kg, po and measured upto 8 hrs post dose by LC-MS/MS analysis; assay type: ADME, organism-based
[9] = MRT in Wistar Han male rat plasma at 1 mg/kg, iv and measured upto 8 hrs post dose by LC-MS/MS analysis; assay type: ADME, organism-based
[10] = Protein binding in Wistar Han male rat plasma at 1 mg/kg, iv or 5 mg/kg, po and measured upto 8 hrs post dose by LC-MS/MS analysis; assay type: ADME, organism-based; conditions: read-out: PPB
[11] = Oral bioavailability in Wistar Han male rat plasma at 5 mg/kg and measured upto 8 hrs by LC-MS/MS analysis; assay type: ADME, organism-based
[12] = biological target: T1, cGMP-dependent protein kinase 1
Description: Activation of PKG1alpha in human HEK293 cells stably expressing VASP assessed as VSAP phosphorylation at Ser 239 incubated for 45 mins by HTRF assay

[13] = Clearance in Wistar Han male rat plasma at 0.05 mg/kg, iv and measured upto 8 hrs post dose by LC-MS/MS analysis; assay type: ADME, organism-based
[14] = Volume of distribution in Wistar Han male rat plasma at 0.05 mg/kg, iv and measured upto 8 hrs post dose by LC-MS/MS analysis; assay type: ADME, organism-based
[15] = MRT in Wistar Han male rat plasma at 0.05 mg/kg, iv and measured upto 8 hrs post dose by LC-MS/MS analysis; assay type: ADME, organism-based
[16] = Protein binding in Wistar Han male rat plasma at 0.05 mg/kg, iv and measured upto 8 hrs post dose by LC-MS/MS analysis; assay type: ADME, organism-based; conditions: read-out: PPB (converted)

Structure (SMILES) | pEC50 [1] | pEC50 [2] | other results
Cc1cc(C(=O)O)ccc1CN1C(C)CC[C@H](O[C@H](CO)c2cc(Cl)cc(Cl)c2)[C@@H]1c1ccccc1 (stereo not given in full) | 3.89 | 4.44 | –
Cc1cc(C(=O)O)ccc1CN1CC[C@H](OC(CO)c2cc(Cl)cc(Cl)c2)[C@@H]1c1ccccc1 (stereo not given in full) | 3.73 | 3.88 | –
Cc1cc(C(=O)O)ccc1CN1CCC[C@H](O[C@H](CO)c2cc(Cl)cc(Cl)c2)[C@@H]1c1cccc(F)c1 | – | 4.92 | –
Cc1cc(C(=O)O)ccc1CN1CCC[C@@]2(C[C@@H](c3ccccc3)CO2)[C@@H]1c1ccccc1 | < 3.70 | 4.37 | –
Cc1cc(C(=O)O)ccc1CN1CCC[C@H](O[C@H](CO)c2cc(Cl)cc(Cl)c2)[C@@H]1c1cccnc1 (racemic) | – | 4.33 | –
Cc1cc(C(=O)O)ccc1CN1CCC[C@H](O[C@H](CO)c2cc(Cl)cc(Cl)c2)[C@@H]1c1ccccc1 | – | – | Vd [3]: 0.33 L/kg; solubility [4]: 157 µM (≈ 80.8 µg/mL); Papp [5]: 22 ×10⁻⁶ cm/s; solubility [6]: 196 µM (≈ 101 µg/mL); solubility [7]: 36 µM (≈ 18.5 µg/mL); clearance [8]: 2.5 mL/min/kg; MRT [9]: 2.3 h; fraction unbound at 8 h [10]: 0.001; bioavailability [11]: 62%
OC[C@@H](O[C@H]1CCCN(Cc2ncc[nH]2)[C@H]1c1ccccc1)c1cc(Cl)cc(Cl)c1 | < 3.70 | 4.33 | solubility [4]: 120 µM (≈ 53.6 µg/mL); Papp [5]: 2 ×10⁻⁶ cm/s; pEC50 [12]: < 3.79
Cc1cc(C(=O)O)ccc1CN1CCC[C@H](OC(c2cc(Cl)cc(Cl)c2)C(C)(C)O)[C@@H]1c1ccccc1 (stereo not given in full) | 3.92 | 4.77 | –
Cc1cc(C(=O)O)ccc1CN1CCC[C@H](O[C@H](CO)c2ccccc2)[C@@H]1c1ccccc1 | < 3.70 | 4.60 | –
Cc1cc(C(=O)O)ccc1C(=O)N1CCC[C@H](O[C@H](CO)c2cc(Cl)cc(Cl)c2)[C@@H]1c1ccccc1 | < 3.70 | < 3.70 | –
Cc1cc(C(=O)O)ccc1CN1CCC[C@H](O[C@H](CO)c2cc(Cl)cc(Cl)c2)[C@@H]1C1CCCCC1 | < 3.70 | 4.19 | –
Cc1cc(C(=O)O)ccc1CN1CCC[C@H](O[C@H](CO)c2ccnc(Cl)c2)[C@@H]1c1ccccc1 | < 3.70 | 4.30 | –
O=C(O)c1ccc(CN2CCC[C@H](O[C@H](CO)c3cc(Cl)cc(Cl)c3)[C@@H]2c2ccccc2)cc1 | 4.11 | – | solubility [4]: 85 µM (≈ 42.5 µg/mL)
Cc1cc(C(=O)O)ccc1CN1C(=O)CC[C@H](OCc2cc(Cl)cc(Cl)c2)[C@@H]1c1ccccc1 | < 3.70 | 3.77 | –
Nc1cc(C(=O)O)ccc1CN1CCC[C@H](O[C@H](CO)c2cc(Cl)cc(Cl)c2)[C@@H]1c1ccccc1 | – | – | solubility [4]: 78 µM (≈ 40.2 µg/mL); Papp [5]: 21 ×10⁻⁶ cm/s; solubility [6]: 126 µM (≈ 64.9 µg/mL); solubility [7]: 137 µM (≈ 70.6 µg/mL); clearance [13]: 4.4 mL/min/kg; Vd [14]: 0.5 L/kg; MRT [15]: 1.9 h; fraction unbound at 8 h [16]: 0.002
COc1cccc([C@@H](CO)O[C@H]2CCCN(Cc3ccc(C(=O)O)cc3C)[C@H]2c2ccccc2)c1 | < 3.70 | 4.09 | –
O=C(O)c1ccc(CN2CCC[C@H](O[C@H](CO)c3cc(Cl)cc(Cl)c3)[C@@H]2c2ccccc2)c([N+](=O)[O-])c1 | – | – | solubility [4]: 110 µM (≈ 60 µg/mL); Papp [5]: 10 ×10⁻⁶ cm/s; solubility [6]: 172 µM (≈ 93.8 µg/mL); solubility [7]: 112 µM (≈ 61.1 µg/mL); clearance [13]: 8.1 mL/min/kg; Vd [14]: 0.45 L/kg; MRT [15]: 0.9 h; fraction unbound at 8 h [16]: < 0.001
Cc1cc(C(=O)O)ccc1C(C)N1CCC[C@H](O[C@H](CO)c2cc(Cl)cc(Cl)c2)[C@@H]1c1ccccc1 (stereo not given in full) | – | 4.74 | –
O=C(O)C12CC(CN3CCC[C@H](O[C@H](CO)c4cc(Cl)cc(Cl)c4)[C@@H]3c3ccccc3)(C1)C2 | < 3.70 | 4.92 | –
CC(=O)NS(=O)(=O)c1ccc(CN2CCC[C@H](O[C@H](CO)c3cc(Cl)cc(Cl)c3)[C@@H]2c2ccccc2)cc1 | < 3.70 | 4.85 | –
Cc1cc(C(=O)O)ccc1CN1CCC[C@H](O[C@H](CO)c2cc(Cl)cc(Cl)c2)[C@@H]1c1ccc(F)cc1 | – | 4.74 | –
